System: Jurkat cells
Details: Jurkat cells dyed with 50 μM reagent in PBS; UV 365 nm 10 minutes vs no UV
Experimental: 1 mL of Jurkat cells 3.0×10^6 cells/PBS (−), the Jurkat cells being human leukemia T cell lines, was prepared in a 1.5 mL Eppendorf tube, and centrifuged at 200×g for five minutes. The supernatant was removed, and 1 mL of a 50 μM MeNPOC-biotin-sulfo-NHS ester.Na/PBS solution was added thereto. The mixture was shielded from light by an aluminum foil, and allowed to stand at room temperature for 20 minutes. The mixture was centrifuged at 200×g for five minutes, and the supernatant was removed. The residue was resuspended in 1 mL of PBS (−) and centrifuged again at 200×g for five minutes, and the supernatant was removed. PBS (−) was added thereto, and the cell concentration was measured with a cell counter, and then the concentration was adjusted to 1.5×10^5 cells/mL. The cells were added dropwise at 0.1 mL/well to a COC film bottom 96 well plate that had been soaked with 1% BSA overnight, and centrifuged at 120×g for one minute to precipitate the cells on a well bottom surface. Subsequently, the sample was irradiated with UV light from the well bottom surface side for 10 minutes using a UV-LED (LED 365-SPT, Optocode, λp=365 nm, about 17 mW/cm^2). As a comparison, a sample not irradiated with UV light was allowed to stand for 10 minutes. The cell suspension was collected from the wells, and PBS was added thereto to adjust the volume to 0.8 mL. […]

“MeNPOC-biotin-sulfo-NHS ester sodium salt” was tested. Which “fluorescence intensity (adsorption of Alexa Fluor 488 labeled streptavidin)” value did it give?
The value was “fluorescence intensity changed depending on presence or absence of UV irradiation”.
